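Assay format: 96-well plates, 48-hour exposure. Definition used: TGI = concentration required for complete inhibition of growth.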
Experiments:
Assay in all cases: DTP human tumour cell line panel, 48 h
786-0 renal = test system: 786-0 renal
A549 NSCLC = test system: A549 NSCLC
BT-549 breast = test system: BT-549 breast
CAKI-1 renal = test system: CAKI-1 renal
HOP-92 NSCLC = test system: HOP-92 NSCLC
MCF7 breast = test system: MCF7 breast
NCI/ADR-RES ovarian = test system: NCI/ADR-RES ovarian
OVCAR-4 ovarian = test system: OVCAR-4 ovarian
SK-OV-3 ovarian = test system: SK-OV-3 ovarian
SNB-19 CNS = test system: SNB-19 CNS
TK-10 renal = test system: TK-10 renal

SMILES | TGI (786-0 renal) [µM] | TGI (A549 NSCLC) [µM] | TGI (BT-549 breast) [µM] | TGI (CAKI-1 renal) [µM] | TGI (HOP-92 NSCLC) [µM] | TGI (MCF7 breast) [µM] | TGI (NCI/ADR-RES ovarian) [µM] | TGI (OVCAR-4 ovarian) [µM] | TGI (SK-OV-3 ovarian) [µM] | TGI (SNB-19 CNS) [µM] | TGI (TK-10 renal) [µM]
CN(CCCNC(=O)c1cc(-c2ccccc2)nc2ccccc12)CCCNC(=O)c1cc(-c2ccccc2)nc2ccccc12 | 3.18 | 15.3 | 26.8 | 22.7 | 9.85 | 3.2 | 11.1 | 11.3 | 26.2 | 16.7 | 14.9
CSc1c(C#N)c(N)n(-c2ccc(Cl)cc2)c(=O)c1C#N | > 100 | > 100 | > 100 | > 100 | > 100 | > 100 | > 100 | > 100 | > 100 | > 100 | > 100
COc1ccc(CNc2cc(=O)n(C)c(=O)[nH]2)cc1 | > 100 | > 100 | > 100 | > 100 | > 100 | > 100 | > 100 | > 100 | > 100 | > 100 | > 100
c1ccc(CC2COC(c3cccs3)=N2)cc1 (configuration not stated) | > 100 | > 100 | > 100 | > 100 | > 100 | > 31.6 | > 100 | > 100 | > 100 | > 100 | > 100
CCOC(=O)C1CCCCN1C(=O)Cc1c[nH]c2ccccc12 (configuration not stated) | > 100 | > 100 | > 100 | > 100 | > 100 | > 100 | > 100 | > 100 | > 100 | > 100 | > 100
CCCn1c(=O)c(N2CCN(c3ccccc3)CC2)nc2sc3ccccc3c21 | > 100 | > 100 | > 100 | > 100 | > 100 | > 100 | > 100 | > 100 | > 100 | > 100 | > 100
CN(C)CCNC(=O)c1cccc2c(NC(CCC(N)=O)C(=O)O)c3ccccc3nc12 (configuration not stated) | > 100 | 64.6 | 33.4 | > 100 | > 100 | 51.3 | > 100 | 60.6 | 54.9 | 15.5 | > 100
CCc1ccc2c(c1)N(CC(C)CN(C)C)c1ccccc1S2 (configuration not stated) | 12.2 | 21.7 | 26.5 | 18.3 | 15.4 | 11.5 | 17.8 | 17 | 18.7 | 23 | 11.4
c1ccc(N=C2c3ccsc3C(=Nc3ccccc3)c3ccsc32)cc1 | 6.25 | 4.1 | 3.6 | 10.2 | 9.37 | 4.79 | 14.4 | 3.32 | 16.3 | 3.88 | 13.7
CCOC(=O)Cn1nnc2ccc(Nc3nc4ccccc4nc3-c3ccccc3)cc21 | > 100 | > 100 | > 100 | > 100 | > 100 | > 100 | > 100 | > 100 | > 100 | > 100 | 62.5
CC(C)(C)OC(=O)NCCCCC(N)NC(=O)c1ccccc1 (configuration not stated) | > 100 | > 100 | > 100 | > 100 | > 100 | > 100 | > 100 | > 100 | > 100 | > 100 | > 100
CCCCNc1nc(NC2OCC(OC(C)=O)C(OC(C)=O)C2OC(C)=O)c(N=O)c(=O)n1C (configuration not stated) | > 10 | > 10 | > 10 | > 10 | > 10 | > 10 | > 10 | > 10 | > 10 | > 10 | > 10
C=CCC1(C)CCCN(Cc2ccccc2)C1=O (configuration not stated) | > 10 | > 10 | > 10 | > 10 | > 10 | > 10 | > 10 | > 10 | > 10 | > 10 | > 10
CC(C)/C(Cl)=N/OC(=O)Nc1ccc(Cl)c(Cl)c1 | 3.46 | 43.4 | 9.62 | 3.17 | 3.2 | 26.9 | 32 | 22.5 | 30.7 | 50.4 | 10.9
N#Cc1nc(C#N)n(S(=O)(=O)c2ccccc2)c1NS(=O)(=O)c1ccccc1 | > 100 | > 100 | > 100 | > 57.7 | > 100 | > 100 | > 100 | > 100 | > 100 | > 100 | > 100
CC(C)(CCC(C)(C)N1OC1c1ccccc1)N1OC1c1ccccc1 (configuration not stated) | > 100 | > 100 | > 100 | 60.3 | > 100 | > 100 | > 100 | > 100 | > 100 | > 100 | > 100
CNNC(=NS(=O)(=O)c1cc(C#N)c(NNC)cc1S)NNC | > 10 | > 10 | > 10 | > 10 | > 10 | > 10 | > 10 | > 10 | > 10 | > 10 | > 10
